The structures appear in SMILES notation.

This assay deals with T1, GID4 (Uniprot ID: Q81VV7, residues 124-289) (Homo sapiens, UniProt Q8IVV7).
T1 construct: GID4 (Uniprot ID: Q81VV7, residues 124-289)
T1 sequence (Q8IVV7 124-289): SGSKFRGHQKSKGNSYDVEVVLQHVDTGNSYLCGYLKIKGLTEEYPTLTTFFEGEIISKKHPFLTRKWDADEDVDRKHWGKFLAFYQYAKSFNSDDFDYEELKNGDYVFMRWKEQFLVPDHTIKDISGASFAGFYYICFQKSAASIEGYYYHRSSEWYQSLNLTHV
Description: GID4 competitive binding assay (AlphaScreen, GID4/degron peptide PGLW). To be noted: 24 nM GID4, 48 nM biotinylated degron peptide PGLW, 4° C., read-out: IC50 (Inhibition of GID4/Degron binding by test compounds). In outline: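 His-tagged human GID4 (residues 124-289, 24 nM) pre-incubated 2 h at 4 °C with 48 nM biotinylated PGLW peptide and compound in HEPES pH 7.5 buffer, 2% DMSO (final). AlphaScreen streptavidin donor/Ni-NTA acceptor beads added for 1 h; IC50 from nonlinear fit of % inhibition versus DMSO.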
On the technique in general: Alpha assays give light when donor and acceptor beads are brought close together.
Regarding `CCOc1ccc(Br)c(C2CN(c3cc(N)nc(N)n3)CCN2)c1` (single isomer, unassigned) [Compound 23, (R/S)-6-(3-(2-bromo-5-ethoxyphenyl)piperazin-1-yl)pyrimidine-2,4-diamine], the IC50 is 0.5 to 5 µM.
For `CN1CCN(CCc2cccc(-c3ccc4ccnc(N)c4c3)c2)CC1` [Compound 344, 7-(3-(2-(4-methylpiperazin-1-yl)ethyl)phenyl)isoquinolin-1-amine] the value was greater than 5 µM; for `CN(C)CCCNC(=O)c1cccc(-c2ccc3ccnc(N)c3n2)c1` [Compound 340, 3-(8-amino-1,7-naphthyridin-2-yl)-N-(3-(dimethylamino)propyl)benzamide], greater than 5 µM.
For `CN1CCC(NC(=O)c2ccc(-c3cc(O)c4ncccc4c3)cc2)CC1` [Compound 297, 4-(8-hydroxyquinolin-6-yl)-N-(1-methylpiperidin-4-yl)benzamide] the value was less than 0.5 µM; for `CC1CNCCN1c1cc(-c2ccnn2C)c2ccnc(-c3ccn[nH]3)c2n1` (stereo not shown) [Compound 363, 4-(1-methyl-1H-pyrazol-5-yl)-2-(2-methylpiperazin-1-yl)-8-(1H-pyrazol-5-yl)-1,7-naphthyridine], greater than 5 µM; for `CNc1nc(C)cc(Nc2cccc(-c3cnccn3)c2)n1` [Compound 190, N2,6-dimethyl-N4-(3-(pyrazin-2-yl)phenyl)pyrimidine-2,4-diamine], greater than 5 µM.
Regarding `Nc1nc(NC2CC2)cc(N2CCN[C@@H](c3ccccc3Br)C2)n1` (racemic) [Compound 122, (S/R)-6-(3-(2-bromophenyl)piperazin-1-yl)-N4-cyclopropylpyrimidine-2,4-diamine], the IC50 is less than 0.5 µM.
As to `Nc1nccc2ccc(-c3cc(C(=O)N4CCCC4)cc4c3CCCC4)cc12` [Compound 342, (4-(1-aminoisoquinolin-7-yl)-5,6,7,8-tetrahydronaphthalen-2-yl)(pyrrolidin-1-yl)methanone], the IC50 was 0.5 to 5 µM.
For `Nc1cc(N2CCCC(n3cnc4ccccc43)C2)nc(N)n1` (stereo not shown) [Compound 260, 6-(3-(1H-benzo[d]imidazol-1-yl)piperidin-1-yl)pyrimidine-2,4-diamine] the value was greater than 5 µM; for `Cc1c(-c2ccc(Br)c(C3CN(c4cc(C(C)C)nc(N)n4)CCN3)c2)cnn1C` (single isomer, unassigned) [Compound 7, R or S-4-(3-(2-bromo-5-(1,5-dimethyl-1H-pyrazol-4-yl)phenyl)piperazin-1-yl)-6-isopropylpyrimidin-2-amine], 0.5 to 5 µM; for `Nc1nc(NCC2CC2)cc(N2CCOC(c3ccccc3Br)C2)n1` (single isomer, unassigned) [Compound 77, R or S-6-(2-(2-bromophenyl)morpholino)-N^4-(cyclopropylmethyl)pyrimidine-2,4-diamine], greater than 5 µM.
For `Nc1nccc2ccc(-c3ccc4[nH]nc(C(=O)NCCO)c4c3)cc12` [Compound 331, 5-(1-aminoisoquinolin-7-yl)-N-(2-hydroxyethyl)-1H-indazole-3-carboxamide] the value was less than 0.5 µM; for `CC(C)c1nc(N)cc(N2CCN(C)C(c3ccccc3Br)C2)n1` (stereo not shown) [Compound 74, 6-(3-(2-bromophenyl)-4-methylpiperazin-1-yl)-2-isopropylpyrimidin-4-amine], 0.5 to 5 µM.
For `Nc1nccc2ccc(-c3ccc4[nH]nc(C(=O)NC[C@H]5CC[C@@H](O)CC5)c4c3)cc12` [Compound 333, 5-(1-aminoisoquinolin-7-yl)-N-((cis-4-hydroxycyclohexyl)methyl)-1H-indazole-3-carboxamide] the value was less than 0.5 µM; for `CC(C)c1cc(N2CCNC(c3cc(N4CCNCC4)ccc3Br)C2)nc(N)n1` (stereo not shown) [Compound 41, 4-(3-(2-bromo-5-(piperazin-1-yl)phenyl)piperazin-1-yl)-6-isopropylpyrimidin-2-amine], less than 0.5 µM.
With `CC(C)c1cc(N2CCOC(c3ccccc3Br)C2)nc(N)n1` (single isomer, unassigned) [Compound 159, (S/R)-4-(2-(2-bromophenyl)morpholino)-6-isopropylpyrimidin-2-amine], the IC50 lay in the range of 0.5 to 5 µM.

The record behind these values is patent US20240132464A1, “HETEROCYCLIC COMPOUNDS AS E3 LIGASE INHIBITORS” (Accutar Biotechnology Inc., priority 2022, published 2024).
